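Results reflect a 48-hour exposure of cells in 96-well plates to compound at five concentrations. At the GI50, growth is halved. At the TGI there is no net growth.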
Legend:
Test in all cases: NCI-60 cell line screen, 48 h
786-0 renal = tested on: 786-0 renal
A498 renal = tested on: A498 renal
A549 NSCLC = tested on: A549 NSCLC
ACHN renal = tested on: ACHN renal
BT-549 breast = tested on: BT-549 breast
CAKI-1 renal = tested on: CAKI-1 renal
CCRF-CEM leukemia = tested on: CCRF-CEM leukemia
COLO 205 colon = tested on: COLO 205 colon
DU-145 prostate = tested on: DU-145 prostate
EKVX NSCLC = tested on: EKVX NSCLC
HCC-2998 colon = tested on: HCC-2998 colon
HCT-116 colon = tested on: HCT-116 colon
HCT-15 colon = tested on: HCT-15 colon
HOP-62 NSCLC = tested on: HOP-62 NSCLC
HOP-92 NSCLC = tested on: HOP-92 NSCLC
HS 578T breast = tested on: HS 578T breast
HT29 colon = tested on: HT29 colon
IGROV1 ovarian = tested on: IGROV1 ovarian
K-562 leukemia = tested on: K-562 leukemia
KM12 colon = tested on: KM12 colon
LOX IMVI melanoma = tested on: LOX IMVI melanoma
M14 melanoma = tested on: M14 melanoma
MALME-3M melanoma = tested on: MALME-3M melanoma
MCF7 breast = tested on: MCF7 breast
MDA-MB-231 breast = tested on: MDA-MB-231 breast
MDA-MB-435 = tested on: MDA-MB-435
MOLT-4 leukemia = tested on: MOLT-4 leukemia
NCI-H226 lung = tested on: NCI-H226 lung
NCI-H23 lung = tested on: NCI-H23 lung
NCI-H460 lung = tested on: NCI-H460 lung
NCI-H522 lung = tested on: NCI-H522 lung
NCI/ADR-RES ovarian = tested on: NCI/ADR-RES ovarian
OVCAR-3 ovarian = tested on: OVCAR-3 ovarian
OVCAR-4 ovarian = tested on: OVCAR-4 ovarian
OVCAR-5 ovarian = tested on: OVCAR-5 ovarian
OVCAR-8 ovarian = tested on: OVCAR-8 ovarian
PC-3 prostate = tested on: PC-3 prostate
RPMI-8226 leukemia = tested on: RPMI-8226 leukemia
RXF 393 renal = tested on: RXF 393 renal
SF-268 CNS = tested on: SF-268 CNS
SF-295 CNS = tested on: SF-295 CNS
SF-539 CNS = tested on: SF-539 CNS
SK-MEL-2 melanoma = tested on: SK-MEL-2 melanoma
SK-MEL-28 melanoma = tested on: SK-MEL-28 melanoma
SK-MEL-5 melanoma = tested on: SK-MEL-5 melanoma
SK-OV-3 ovarian = tested on: SK-OV-3 ovarian
SN12C renal = tested on: SN12C renal
SNB-19 CNS = tested on: SNB-19 CNS
SNB-75 CNS = tested on: SNB-75 CNS
SW-620 colon = tested on: SW-620 colon
T-47D breast = tested on: T-47D breast
TK-10 renal = tested on: TK-10 renal
U251 CNS = tested on: U251 CNS
UACC-257 melanoma = tested on: UACC-257 melanoma
UACC-62 melanoma = tested on: UACC-62 melanoma
UO-31 renal = tested on: UO-31 renal
SR leukemia = tested on: SR leukemia

Molecule `CC(=O)NNC(=O)c1nn(-c2ccc(Cl)cc2)cc1OC(C)=O` has a GI50 (786-0 renal) of 14.4 µM, a TGI (786-0 renal) of over 100 µM and a GI50 (A498 renal) of 22.2 µM. For the same molecule, the TGI (A498 renal) was 91.7 µM, the GI50 (A549 NSCLC) was 18.8 µM and the TGI (A549 NSCLC) was over 100 µM. For the same molecule, the GI50 (ACHN renal) was 15.3 µM, the TGI (ACHN renal) was over 66.6 µM and the GI50 (BT-549 breast) was 28.8 µM. The TGI (BT-549 breast) was over 100 µM, the GI50 (CAKI-1 renal) was 9.3 µM and the TGI (CAKI-1 renal) was 82.6 µM. The GI50 (CCRF-CEM leukemia) was 10.2 µM, the TGI (CCRF-CEM leukemia) was over 100 µM and the GI50 (COLO 205 colon) was 39.1 µM. For the same molecule, the TGI (COLO 205 colon) was over 100 µM, the GI50 (DU-145 prostate) was 18.7 µM and the TGI (DU-145 prostate) was over 100 µM. For the same molecule, the GI50 (EKVX NSCLC) was 23.7 µM, the TGI (EKVX NSCLC) was over 100 µM and the GI50 (HCC-2998 colon) was 21.4 µM. It also gave a TGI (HCC-2998 colon) of over 100 µM, a GI50 (HCT-116 colon) of 14.6 µM and a TGI (HCT-116 colon) of over 100 µM. It also gave a GI50 (HCT-15 colon) of 7.23 µM, a TGI (HCT-15 colon) of over 100 µM and a GI50 (HOP-62 NSCLC) of 27.2 µM. The TGI (HOP-62 NSCLC) was over 100 µM, the GI50 (HOP-92 NSCLC) was 38.7 µM and the TGI (HOP-92 NSCLC) was over 100 µM. The GI50 (HS 578T breast) was 40 µM, the TGI (HS 578T breast) was over 100 µM and the GI50 (HT29 colon) was 42.4 µM. For the same molecule, the TGI (HT29 colon) was over 93.4 µM, the GI50 (IGROV1 ovarian) was 21.5 µM and the TGI (IGROV1 ovarian) was over 100 µM. It also gave a GI50 (K-562 leukemia) of 32.9 µM, a TGI (K-562 leukemia) of over 100 µM and a GI50 (KM12 colon) of 43.7 µM. The TGI (KM12 colon) was over 100 µM, the GI50 (LOX IMVI melanoma) was 22.5 µM and the TGI (LOX IMVI melanoma) was over 100 µM. The GI50 (M14 melanoma) was 14.2 µM, the TGI (M14 melanoma) was 49.7 µM and the GI50 (MALME-3M melanoma) was 25.7 µM. For the same molecule, the TGI (MALME-3M melanoma) was over 91.4 µM, the GI50 (MCF7 breast) was over 37 µM and the TGI (MCF7 breast) was over 78.4 µM. For the same molecule, the GI50 (MDA-MB-231 breast) was 23.7 µM, the TGI (MDA-MB-231 breast) was over 87.4 µM and the GI50 (MDA-MB-435) was 30.3 µM. The TGI (MDA-MB-435) was over 100 µM, the GI50 (MOLT-4 leukemia) was over 21 µM and the TGI (MOLT-4 leukemia) was over 100 µM. It also gave a GI50 (NCI-H226 lung) of 22.1 µM, a TGI (NCI-H226 lung) of over 100 µM and a GI50 (NCI-H23 lung) of 22.2 µM. It also gave a TGI (NCI-H23 lung) of 97.2 µM, a GI50 (NCI-H460 lung) of 5.76 µM and a TGI (NCI-H460 lung) of over 100 µM. It also gave a GI50 (NCI-H522 lung) of 35.5 µM, a TGI (NCI-H522 lung) of over 100 µM and a GI50 (NCI/ADR-RES ovarian) of 17 µM. It also gave a TGI (NCI/ADR-RES ovarian) of 69.7 µM, a GI50 (OVCAR-3 ovarian) of 18.8 µM and a TGI (OVCAR-3 ovarian) of over 100 µM. It also gave a GI50 (OVCAR-4 ovarian) of 79.6 µM, a TGI (OVCAR-4 ovarian) of over 100 µM and a GI50 (OVCAR-5 ovarian) of over 83.5 µM. It also gave a TGI (OVCAR-5 ovarian) of over 100 µM, a GI50 (OVCAR-8 ovarian) of 22.3 µM and a TGI (OVCAR-8 ovarian) of over 100 µM. It also gave a GI50 (PC-3 prostate) of 5.07 µM, a TGI (PC-3 prostate) of over 25 µM and a GI50 (RPMI-8226 leukemia) of 12.1 µM. The TGI (RPMI-8226 leukemia) was 64.3 µM, the GI50 (RXF 393 renal) was 16.9 µM and the TGI (RXF 393 renal) was over 83.2 µM. It also gave a GI50 (SF-268 CNS) of 8.85 µM, a TGI (SF-268 CNS) of over 71.3 µM and a GI50 (SF-295 CNS) of 15.9 µM. The TGI (SF-295 CNS) was over 100 µM, the GI50 (SF-539 CNS) was 21.9 µM and the TGI (SF-539 CNS) was over 100 µM. For the same molecule, the GI50 (SK-MEL-2 melanoma) was over 64.7 µM, the TGI (SK-MEL-2 melanoma) was over 100 µM and the GI50 (SK-MEL-28 melanoma) was over 56.7 µM. The TGI (SK-MEL-28 melanoma) was over 100 µM, the GI50 (SK-MEL-5 melanoma) was 10.4 µM and the TGI (SK-MEL-5 melanoma) was over 69.1 µM. For the same molecule, the GI50 (SK-OV-3 ovarian) was 49.5 µM, the TGI (SK-OV-3 ovarian) was over 100 µM and the GI50 (SN12C renal) was 20.8 µM. For the same molecule, the TGI (SN12C renal) was over 100 µM, the GI50 (SNB-19 CNS) was over 70.2 µM and the TGI (SNB-19 CNS) was over 100 µM. The GI50 (SNB-75 CNS) was over 66.5 µM, the TGI (SNB-75 CNS) was 99.7 µM and the GI50 (SW-620 colon) was 23.6 µM. For the same molecule, the TGI (SW-620 colon) was over 100 µM, the GI50 (T-47D breast) was 13.7 µM and the TGI (T-47D breast) was 94.6 µM. The GI50 (TK-10 renal) was 15.6 µM, the TGI (TK-10 renal) was over 100 µM and the GI50 (U251 CNS) was 11.8 µM. The TGI (U251 CNS) was over 100 µM, the GI50 (UACC-257 melanoma) was 87.8 µM and the TGI (UACC-257 melanoma) was over 100 µM. It also gave a GI50 (UACC-62 melanoma) of 19.8 µM, a TGI (UACC-62 melanoma) of over 65.3 µM and a GI50 (UO-31 renal) of 17.5 µM. It also gave a TGI (UO-31 renal) of over 86.8 µM.

In the case of `N/C(=N\Nc1nc2cc([N+](=O)[O-])ccc2o1)c1ccccn1`, the TGI (786-0 renal) is reported as 1.93 µM, the TGI (A498 renal) is reported as 3.6 µM and the TGI (ACHN renal) is reported as 9.6 µM. It also gave a TGI (BT-549 breast) of 3.68 µM, a TGI (CAKI-1 renal) of 8.44 µM and a TGI (DU-145 prostate) of 1.11 µM. For the same molecule, the TGI (EKVX NSCLC) was 0.202 µM, the TGI (HCT-116 colon) was 0.222 µM and the TGI (HOP-62 NSCLC) was 2.8 µM. It also gave a TGI (HOP-92 NSCLC) of 5.71 µM, a TGI (HS 578T breast) of over 100 µM and a TGI (K-562 leukemia) of over 100 µM. The TGI (LOX IMVI melanoma) was 3.68 µM, the TGI (MALME-3M melanoma) was 58.4 µM and the TGI (MDA-MB-231 breast) was 2.13 µM. It also gave a TGI (MDA-MB-435) of over 100 µM, a TGI (NCI-H226 lung) of 38 µM and a TGI (NCI-H23 lung) of 4.26 µM. For the same molecule, the TGI (NCI-H460 lung) was 1.19 µM, the TGI (NCI/ADR-RES ovarian) was 4.45 µM and the TGI (OVCAR-8 ovarian) was 10.6 µM. The TGI (PC-3 prostate) was 6.14 µM, the TGI (RPMI-8226 leukemia) was 4.83 µM and the TGI (RXF 393 renal) was 0.497 µM. The TGI (SF-268 CNS) was 1.62 µM, the TGI (SF-295 CNS) was 14 µM and the TGI (SF-539 CNS) was 1 µM. It also gave a TGI (SK-MEL-2 melanoma) of 2.63 µM, a TGI (SK-MEL-5 melanoma) of 1.45 µM and a TGI (SK-OV-3 ovarian) of 6.38 µM. It also gave a TGI (SN12C renal) of 3.85 µM, a TGI (SNB-75 CNS) of 2.13 µM and a TGI (SR leukemia) of 0.0696 µM. For the same molecule, the TGI (SW-620 colon) was over 100 µM, the TGI (T-47D breast) was 0.796 µM and the TGI (TK-10 renal) was 5.51 µM. The TGI (U251 CNS) was 1.23 µM, the TGI (UACC-257 melanoma) was 0.341 µM and the TGI (UACC-62 melanoma) was 1.54 µM.

From PubChem BioAssay (NCI)
